These results are taken from patent publication US10071957B2, “N-substituted benzamides and methods of use thereof” (GENENTECH, INC., priority 2012, dated 2018).

Experiment [1] addresses T1, hNaV1.7 (Homo sapiens (Human), UniProt Q15858). Put plainly: Competitive binding of tritiated compound to membranes from cells expressing hNav1.7 and the β1 subunit. The note with it: 100 pM [3H]compound, 18 h, room temperature; read-out: NaV1.7 395 Membrane Binding IC50. The method, then: Tritiated compound binding to membranes isolated from cells that heterologously express hNav1.7 and the β1 subunit
Preparation of membranes containing recombinantly expressed sodium channels: Frozen recombinant cell pellets were thawed on ice and diluted to 4 times the cell pellet weight with ice cold 50 mM Tris HCl, pH 7.4 buffer. The cell suspensions were homogenized on ice using a motorized glass dounce homogeniser. Homogenates were further diluted 8.4 times with ice cold 50 mM Tris HCl, pH 7.4 buffer and then centrifuged at 200×g at 4° C. for 15 min. The supernatants were collected and centrifuged at 10000×g at 4° C. for 50 min. The pellets were then re-suspended in 100 mM NaCl, 20 mM Tris HCl, pH 7.4 buffer containing 1% v/v protease inhibitors (Calbiochem) and re-homogenized on ice. The homogenized membranes were then processed through a syringe equipped with a 26 gauge needle. Protein concentrations were determined by Bradford Assay and the membranes were stored at −80° C.
Radioligand Binding Studies: Saturation experiments. A representative compound of formula (I) was tritiated. Three tritiums were incorporated in place of methyl hydrogens to generate [^3H]compound. Binding of this radioligand was performed in 5 mL borosilicate glass test tubes at room temperature. Binding was initiated by adding membranes to increasing concentrations of [^3H]compound in 100 mM NaCl, 20 mM Tris HCl, pH 7.4 buffer containing 0.01% w/v bovine serum albumin (BSA) for 18 h. Non-specific binding was determined in the presence of 1 μM unlabelled compound. After 18 h, the reactants were filtered through GF/C glass fiber filters presoaked in 0.5% w/v polyethylene imine. Filters were washed with 15 mL ice cold 100 mM NaCl, 20 mM Tris HCl, pH 7.4 buffer containing 0.25% BSA to separate bound from free ligand. [^3H]compound bound to filters was quantified by liquid scintillation counting.
Competitive binding experiments. Binding reactions were performed in 96-well polypropylene plates at room temperature for 18 h. In 360 μL, membranes were incubated with 100 pM [^3H]compound and increasing concentrations of Test Compound. Non-specific binding was defined in the presence of 1 μM unlabelled compound. Reactions were transferred and filtered through 96-well glass fiber/C filter plates presoaked with 0.5% polyethylene imine. The filtered reactions were washed 5 times with 200 μL ice cold buffer containing 0.25% BSA. Bound radioactivity was determined by liquid scintillation counting.
Data Analysis: For saturation experiments, non-specific binding was subtracted from total binding to provide specific binding and these values were recalculated in terms of pmol ligand bound per mg protein. Saturation curves were constructed and dissociation constants were calculated using the single site ligand binding model: Beq=(Bmax*X)/(X+Kd), where Beq is the amount of ligand bound at equilibrium, Bmax is the maximum receptor density, Kd is the dissociation constant for the ligand, and X is the free ligand concentration. For competition studies percent inhibition was determined and IC50 values were calculated using a 4 parameter logistic model (% inhibition=(A+((B−A)/(1+((x/C)^D)))) using XLfit, where A and B are the maximal and minimum inhibition respectively, C is the IC50 concentration and D is the (Hill) slope.

In experiment [2] the target is T1, hNaV1.7. Briefly: Patch voltage clamp electrophysiology, inactivated state block of NaV1.7 in HEK-293 cells. As to conditions: HEK cells with β1 subunit, read-out: hNaV 1.7 IC50. Format: cell-based. The method, then: Patch voltage clamp electrophysiology allows for the direct measurement and quantification of block of voltage-gated sodium channels (NaV's), and allows the determination of the time- and voltage-dependence of block which has been interpreted as differential binding to the resting, open, and inactivated states of the sodium channel (Hille, B., Journal of General Physiology (1977), 69: 497-515).
The following patch voltage clamp electrophysiology studies were performed on representative compounds of the invention using human embryonic kidney cells (HEK), permanently transfected with an expression vector containing the full-length cDNA coding for the desired human sodium channel α-subunit, grown in culture media containing 10% FBS, 1% PSG, and 0.5 mg/mL G418 at 37° C. with 5% CO2. […] NaV1.7 and NaV1.5 cDNAs (NM_002977 and AC137587; SCN5A, respectively) were stably expressed in HEK-293 cells. The β1 subunit was coexpressed in both the NaV1.7 and NaV1.5 cell lines.
Sodium currents were measured using the patch clamp technique in the whole-cell configuration using either a PatchXpress automated voltage clamp or manually using an Axopatch 200B (Axon Instruments) or Model 2400 (A-M systems) amplifier. The manual voltage clamp protocol was as follows:
The pipette was filled with a solution comprised of: 5 mM NaCl, 10 mM CsCl, 120 mM CsF, 0.1 mM CaCl2, 2 mM MgCl2, 10 mM HEPES, 10 mM EGTA; and adjusted to pH 7.2 with CsOH. The external solution had the following composition: 140 mM NaCl, 5 mM KCl, 2 mM CaCl2, 1 mM MgCl2, 10 mM HEPES; and adjusted to pH 7.4 with NaOH. In some studies, the external sodium was reduced by equimolar replacement with choline. Osmolarity in the CsF internal and NaCl external solutions was adjusted to 300 mOsm/kg and 310 mOsm/kg with glucose, respectively. All recordings were performed at ambient temperature in a bath chamber with a volume of 150 μL. Control sodium currents were measured in 0.5% DMSO. Controls and representative compounds of the invention were applied to the recording chamber through a 4-pinch or 8-pinch valve bath perfusion system manufactured by ALA Scientific Instruments.
Currents were recorded at 40 kHz sampling frequency, filtered at […], and stored using a Digidata-1322A analogue/digital interface with the pClamp software (Axon Instruments). Series resistance compensation was applied (60-80%). […] All statistics in this study are given as mean±SD.
The membrane potential was maintained at a voltage where inactivation of the channel is complete (which was −60 mV for both NaV1.7 and NaV1.5). […] The percent decrease in sodium current following wash-on of compound was taken as the percent block of sodium channels.

T1 sequence (Q15858 whole entry, looked up): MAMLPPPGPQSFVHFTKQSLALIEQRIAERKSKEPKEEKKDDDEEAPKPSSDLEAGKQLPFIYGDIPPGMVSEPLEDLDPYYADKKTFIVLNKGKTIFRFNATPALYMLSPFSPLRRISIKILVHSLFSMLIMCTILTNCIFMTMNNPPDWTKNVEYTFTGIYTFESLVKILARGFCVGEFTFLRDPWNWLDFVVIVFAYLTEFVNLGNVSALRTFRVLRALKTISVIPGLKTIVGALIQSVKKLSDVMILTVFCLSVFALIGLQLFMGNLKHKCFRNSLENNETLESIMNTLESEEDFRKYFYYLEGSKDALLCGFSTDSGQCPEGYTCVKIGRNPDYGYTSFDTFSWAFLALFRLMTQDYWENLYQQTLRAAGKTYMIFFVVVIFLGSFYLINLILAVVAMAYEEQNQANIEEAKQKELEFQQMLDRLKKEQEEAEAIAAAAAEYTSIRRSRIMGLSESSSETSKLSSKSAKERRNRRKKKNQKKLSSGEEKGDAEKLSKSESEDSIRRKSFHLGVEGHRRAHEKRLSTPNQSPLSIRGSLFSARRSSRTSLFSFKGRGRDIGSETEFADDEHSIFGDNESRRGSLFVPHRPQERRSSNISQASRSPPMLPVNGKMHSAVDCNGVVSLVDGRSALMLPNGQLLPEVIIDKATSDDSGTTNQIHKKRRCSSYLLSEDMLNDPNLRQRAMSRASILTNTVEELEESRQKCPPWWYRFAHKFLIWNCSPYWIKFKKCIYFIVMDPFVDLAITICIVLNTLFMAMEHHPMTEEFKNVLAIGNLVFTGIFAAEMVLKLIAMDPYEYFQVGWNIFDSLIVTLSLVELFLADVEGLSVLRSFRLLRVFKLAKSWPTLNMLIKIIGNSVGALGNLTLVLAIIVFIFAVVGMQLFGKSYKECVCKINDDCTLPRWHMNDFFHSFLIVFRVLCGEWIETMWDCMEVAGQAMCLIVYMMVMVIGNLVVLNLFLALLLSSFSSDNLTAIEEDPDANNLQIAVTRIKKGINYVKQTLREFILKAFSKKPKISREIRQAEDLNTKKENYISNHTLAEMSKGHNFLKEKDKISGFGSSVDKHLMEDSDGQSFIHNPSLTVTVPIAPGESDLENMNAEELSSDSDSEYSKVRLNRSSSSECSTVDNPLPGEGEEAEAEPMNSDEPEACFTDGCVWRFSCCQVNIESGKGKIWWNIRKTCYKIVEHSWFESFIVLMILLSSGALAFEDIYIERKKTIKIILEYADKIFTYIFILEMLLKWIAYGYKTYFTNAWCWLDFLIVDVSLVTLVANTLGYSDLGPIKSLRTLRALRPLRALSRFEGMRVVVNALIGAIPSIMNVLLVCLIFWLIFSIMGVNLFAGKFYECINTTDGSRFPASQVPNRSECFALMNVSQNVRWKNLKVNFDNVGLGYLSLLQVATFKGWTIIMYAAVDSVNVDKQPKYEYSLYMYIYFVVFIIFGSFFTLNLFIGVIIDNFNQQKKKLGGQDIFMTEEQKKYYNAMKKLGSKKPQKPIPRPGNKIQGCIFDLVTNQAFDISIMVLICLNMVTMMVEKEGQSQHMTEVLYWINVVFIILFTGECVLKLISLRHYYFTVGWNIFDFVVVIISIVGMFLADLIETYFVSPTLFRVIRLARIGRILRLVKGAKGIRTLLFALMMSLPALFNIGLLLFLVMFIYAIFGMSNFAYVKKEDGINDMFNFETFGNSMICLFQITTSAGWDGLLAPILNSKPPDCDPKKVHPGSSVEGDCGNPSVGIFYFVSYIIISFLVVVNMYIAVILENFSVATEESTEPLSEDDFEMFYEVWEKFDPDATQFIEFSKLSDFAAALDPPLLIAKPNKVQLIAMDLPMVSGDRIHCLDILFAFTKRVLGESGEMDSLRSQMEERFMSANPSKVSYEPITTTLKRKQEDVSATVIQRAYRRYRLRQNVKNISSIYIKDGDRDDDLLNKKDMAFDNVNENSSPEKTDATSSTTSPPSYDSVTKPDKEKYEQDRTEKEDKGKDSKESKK
T1 sequence (Q07699 whole entry partner, looked up): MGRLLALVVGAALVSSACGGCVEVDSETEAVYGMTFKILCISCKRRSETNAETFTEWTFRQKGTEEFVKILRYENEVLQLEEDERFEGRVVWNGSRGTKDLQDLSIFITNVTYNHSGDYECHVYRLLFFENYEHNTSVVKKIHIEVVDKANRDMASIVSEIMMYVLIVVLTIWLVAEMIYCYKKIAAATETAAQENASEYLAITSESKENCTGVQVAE

In the case of `CN(C)S(=O)(=O)NC(=O)c1cc(Cl)c(Oc2ccc(Cl)c(C(F)(F)F)c2)cc1F` [Preparation 1, 5-chloro-4-(4-chloro-3-(trifluoromethyl)phenoxy)-N-(N,N-dimethylsulfamoyl)-2-fluorobenzamide], the IC50 (in general, the midpoint of a concentration-inhibition curve) in experiment [1] amounted to 253 nM; in experiment [2] it was 53 nM.

For `CC(C)COc1ncc(Oc2cc(F)c(C(=O)NS(N)(=O)=O)cc2Cl)cc1Cl` [Preparation 4, 5-chloro-4-((5-chloro-6-isobutoxypyridin-3-yl)oxy)-2-fluoro-N-sulfamoylbenzamide], the IC50 in experiment [1] was found to be 70.8 nM; in experiment [2], 9 nM.

Regarding `CN(C)S(=O)(=O)NC(=O)c1cc(Cl)c(COc2ccc(Cl)c(Cl)c2)cc1F` [Preparation 5, 5-chloro-4-((3,4-dichlorophenoxy)methyl)-N-(N,N-dimethylsulfamoyl)-2-fluorobenzamide], the IC50 in experiment [1] was determined as 174 nM; in experiment [2], 19 nM.

For `NS(=O)(=O)NC(=O)c1cc(Cl)c(Oc2ccc(Cl)c(C(F)(F)F)c2)cc1F` [Preparation 7, 5-chloro-4-(4-chloro-3-(trifluoromethyl)phenoxy)-2-fluoro-N-sulfamoyl-benzamide], the IC50 in experiment [1] stood at 1130 nM; in experiment [2], 190 nM.

As to `CNS(=O)(=O)NC(=O)c1cc(Cl)c(Oc2ccc(Cl)c(C(F)(F)F)c2)cc1F` [Preparation 8, 5-chloro-4-(4-chloro-3-(trifluoromethyl)phenoxy)-2-fluoro-N-(N-methyl-sulfamoyl)benzamide], the IC50 in experiment [1] amounted to 109 nM; in experiment [2] it was 22 nM.

As for `NS(=O)(=O)NC(=O)c1cc(Cl)c(Oc2ccc(OC(F)(F)F)c(Cl)c2)cc1F` [Preparation 10, 5-chloro-4-(3-chloro-4-(trifluoromethoxy)phenoxy)-2-fluoro-N-sulfamoyl-benzamide], the IC50 in experiment [1] came to 2000 nM; in experiment [2], 226 nM.

As to `CNS(=O)(=O)NC(=O)c1cc(Cl)c(Oc2ccc(OC(F)(F)F)c(Cl)c2)cc1F` [Preparation 11, 5-chloro-4-(3-chloro-4-(trifluoromethoxy)phenoxy)-2-fluoro-N-(N-methyl-sulfamoyl)benzamide], the IC50 is 145 nM in experiment [1] and 15 nM in experiment [2].

With `CN(C)S(=O)(=O)NC(=O)c1cc(Cl)c(Oc2ccc(OC(F)(F)F)c(Cl)c2)cc1F` [Preparation 12, 5-chloro-4-(3-chloro-4-(trifluoromethoxy)phenoxy)-N-(N,N-dimethylsulfamoyl)-2-fluorobenzamide], the IC50 in experiment [1] stood at 218 nM; in experiment [2], 41 nM.

For `CC(C)COc1ncc(Oc2cc(F)c(C(=O)NS(=O)(=O)N3CCCC3)cc2Cl)cc1Cl` [Preparation 14, 5-chloro-4-((5-chloro-6-isobutoxypyridin-3-yl)oxy)-2-fluoro-N-(pyrrolidin-1-ylsulfonyl)benzamide], the IC50 was 30.1 nM in experiment [1] and 44 nM in experiment [2].

Consider `CC(C)COc1ncc(Oc2cc(F)c(C(=O)NS(=O)(=O)N3CCCCC3)cc2Cl)cc1Cl` [Preparation 15, 5-chloro-4-((5-chloro-6-isobutoxypyridin-3-yl)oxy)-2-fluoro-N-(piperidin-1-ylsulfonyl)benzamide], for which the IC50 came out at 58.4 nM in experiment [1] and 64 nM in experiment [2].

`CC(C)COc1ncc(Oc2cc(F)c(C(=O)NS(=O)(=O)N3CCCCCC3)cc2Cl)cc1Cl` [Preparation 16, N-(azepan-1-ylsulfonyl)-5-chloro-4-((5-chloro-6-isobutoxypyridin-3-yl)oxy)-2-fluorobenzamide]: the IC50 was 542 nM in experiment [1] and 73 nM in experiment [2].

For the molecule `CC(C)COc1ncc(Oc2cc(F)c(C(=O)NS(=O)(=O)N(C)C(C)C)cc2Cl)cc1Cl` [Preparation 17, 5-chloro-4-((5-chloro-6-isobutoxypyridin-3-yl)oxy)-2-fluoro-N-(N-isopropyl-N-methylsulfamoyl) benzamide], the IC50 in experiment [1] amounted to 123 nM; in experiment [2], 125 nM.

For `CC(C)COc1ncc(Oc2cc(F)c(C(=O)NS(=O)(=O)Nc3ccc(C#N)cc3)cc2Cl)cc1Cl` [Preparation 21, 5-chloro-4-((5-chloro-6-isobutoxypyridin-3-yl)oxy)-N-(N-(4-cyanophenyl)sulfamoyl)-2-fluoro-benzamide], the IC50 in experiment [1] stood at 2940 nM; in experiment [2], 828 nM.

Consider `CN(C)S(=O)(=O)NC(=O)c1cc(Cl)c(OCc2ccc(Cl)c(Cl)c2)cc1F` [Preparation 23, 5-chloro-4-((3,4-dichlorobenzyl)oxy)-N-(N,N-dimethyl-sulfamoyl)-2-fluoro-benzamide], for which the IC50 in experiment [1] amounted to 1250 nM; in experiment [2], 271 nM.

For `CC(C)COc1ncc(Oc2cc(F)c(C(=O)NS(=O)(=O)c3cn(C)cn3)cc2Cl)cc1Cl` [Preparation 24, 5-chloro-4-((5-chloro-6-isobutoxypyridin-3-yl)oxy)-2-fluoro-N-((1-methyl-1H-imidazol-4-yl)sulfonyl)benzamide], the IC50 in experiment [1] came out at 578 nM; in experiment [2], 34 nM.

`CC(C)COc1ncc(Oc2cc(F)c(C(=O)NS(=O)(=O)N3CCc4ccccc43)cc2Cl)cc1Cl` [Preparation 25, 5-chloro-4-((5-chloro-6-isobutoxypyridin-3-yl)oxy)-2-fluoro-N-(indolin-1-yl-sulfonyl)benzamide]: the IC50 turned out to be 388 nM in experiment [1] and 190 nM in experiment [2].

As for `CC(C)COc1ncc(Oc2cc(F)c(C(=O)NS(=O)(=O)c3c[nH]cn3)cc2Cl)cc1Cl` [Preparation 26, N-((1H-imidazol-4-yl)sulfonyl)-5-chloro-4-((5-chloro-6-isobutoxypyridin-3-yl)oxy)-2-fluorobenzamide], the values for the IC50 in experiment [1] and in experiment [2] were 77.3 nM and 9 nM, respectively.

For the molecule `CC(C)COc1ncc(Oc2cc(F)c(C(=O)NS(=O)(=O)c3cccnc3)cc2Cl)cc1Cl` [Preparation 28, 5-chloro-4-((5-chloro-6-isobutoxypyridin-3-yl)oxy)-2-fluoro-N-(pyridin-3-yl-sulfonyl)benzamide], the IC50 in experiment [1] is 703 nM; in experiment [2] it was 57 nM.

With `O=C(NS(=O)(=O)N1CCC1)c1cc(Cl)c(COc2cnc(OCC(F)(F)C(F)F)c(Cl)c2)cc1F` [Preparation 101], in experiment [1], the IC50 is 68 nM.
